We go through three compounds from patent US7438933B2, “Maternal multi-nutrient against diabetes-related birth defects” (The Board of Trustees of the University of Arkansas System, priority 2004, dated 2008).

Each structure is given as a SMILES string.

For one assay, the system named is diabetic pregnancies. Particulars: experimental models; reduced from 25%; cited from earlier work.
Another assay deals with JNK1/2. Kind of assay: Western blot of phosphorylated JNK1/2 in embryonic yolk sac cells. The conditions noted are these: diabetic dams with supplemented diet, changed to the levels of non-diabetic rats, FIG. 8. In kind it is in vivo, rat. On the procedure:
(§1) The active forms of ERK and JNK are phosphorylated, so their activation in yolk sac tissues were assessed by Western blot detection of the corresponding phosphoproteins. The levels of phosphorylated Raf-1 which activates ERKs and Akt which is an antiapototic protein were also assessed by western blot. Yolk sac tissues were isolated, protein was extracted and analyzed using Western blotting with antibodies specific for phosphorylated ERK-1 and -2 (p-ERK1/2), JNK-1 and -2 (p-JNK1/2), RAF-1 and Akt (FIG. 6A). […] Levels of phosphorylated ERK1/2, JNK1/2, Raf-1 and Akt in embryonic yolk sac cells were evaluated using Western blot assays.
(In western blotting, separated proteins are transferred to a membrane and probed.)

For a further assay, the system named is embryos of diabetic rats. Kind of assay: Dietary supplementation of pregnant STZ-diabetic and non-diabetic rats; neural tube defects in E12 embryos. The conditions noted are these: supplemented diet from day 1 of pregnancy, embryos at E12. In kind it is in vivo, rat. On the procedure: To induce diabetes, 8-week-old Sprague-Dawley female rats are injected with 65 mg/kg of streptozotocin via the tail vein. Blood glucose levels are monitored daily (by tail vein puncture using a lancet) using a Prestige Smart blood glucose meter (Home Diagnostics, Fort Lauderdale, Fla.). Once a level of hyperglycemia indicative of diabetes (>250 mg/dl) is achieved, a sustained-release insulin pellet (Linplant, Linshin, Canada) will be inserted subcutaneously.
When glucose levels are restored to normal (80-150 mg/dl) and are stable for at least three continuous days, matings can be set up with male rats of the same strain. Day zero of pregnancy is established by identifying spermatozoa in vaginal smears. At designated developmental stages, insulin pellets are withdrawn to generate hyperglycemia in the pregnant rats. A group of control rats will continuously receive insulin during the course of the experiment. Glucose levels and maternal weight are continuously monitored during the pregnancy. Since it has already been shown that there is no difference in embryonic development between streptozotocin/insulin-treated and non-streptozotocin-treated animals, the streptozotocin/insulin-treated groups are used as an equivalent of non-diabetic control. At the end of the experiment, rats are euthanized and embryos dissected out of the uterus for examination and analysis. At least four pregnant rats are included in each group, from which 40-60 embryos can be obtained for examination. For each type of study, at least three replicate experiments will be carried out.
To investigate the effects of maternal hyperglycemia on embryonic malformations, the investigators employed a rat model that induces diabetes by streptozotocin (STZ). Subcutaneously implanted insulin pellets maintained euglycemia at the time of mating. On day 4 of pregnancy, the insulin pellets were removed, and the developing embryos were exposed to hyperglycemia during organogenesis (days 9-12). To maintain a euglycemic control, insulin pellets were retained in the body during the entire experimental course. On day 12, both sets of rats were euthanized, embryos were dissected out of the uteri for examination, and each embryo's yolk sac was collected for biochemical and molecular analyses.
After removal from the dams, embryos were examined under a dissecting microscope and assessed for morphological malformations in a number of categories to determine the effects of maternal hyperglycemia. […]
At E12, embryos were dissected out of uteri and evaluated for neural tube defects (NTDs), which were used as a measure of malformation rates.

Another assay has as its system yolk sacs. The assay can be described thus: DNA laddering assay of apoptosis in embryonic yolk sacs after maternal supplementation. In kind it is in vivo, rat. The conditions noted are these: embryos of diabetic mothers with supplemented diet, FIG. 7. On the procedure:
To determine whether hyperglycemia is associated with programmed cell death in embryos, DNA laddering was examined in yolk sacs of embryos with either diabetic or non-diabetic mothers. Yolk sac tissues were collected from embryos, and DNA was extracted using DNeasy Tissue Kit (Qiagen, Valencia, Calif.) and resolved on 0.5% agarose gel. […] To examine whether supplemented diets affected apoptosis in developing embryos of diabetic dams, DNA fragmentation (an indicator of apoptosis) was analyzed using DNA laddering assays.

A further assay deals with ERK1/2. The assay can be described thus: Western blot of phosphorylated ERK1/2 in embryonic yolk sac cells. The conditions noted are these: diabetic dams with supplemented diet, changed to the levels of non-diabetic rats, FIG. 8. In kind it is in vivo, rat. On the procedure: as §1
The next assay concerns caspase3. Kind of assay: Western blot of phosphorylated caspase3 in yolk sac cells. Particulars: embryos of diabetic dams with supplementation, FIG. 4A. In kind it is in vivo, rat. The source says:
(§2) Apoptosis is mediated by a program involving a number of factors, including caspase3 and Bax (a member of the Bcl-2 family). Hyperglycemia may stimulate JNK activity, which then activates caspases and leads to apoptosis. Activation of Bax is also a hallmark of ongoing apoptosis. To determine whether caspase and Bax activation are involved in maternal diabetic embryopathy, changes in the levels of phosphorylated caspase3 and Bax in yolk sac cells from embryos with either diabetic or non-diabetic mothers were assessed. Cell lysates were resolved on 12% polyacrylamide gel and blotted on nylon membrane. The blots were probed with antibodies raised against phosphorylated caspase3 or Bax (Santa Cruz Biotechnologies, Santa Cruz, Calif.). Signals were detected using a chemiluminescence detection method and exposed to X-ray film (FIG. 4A). The density of the bands on X-ray film was measured using densitometry (VersaDoc Imaging System, Bio-Rad, Hercules, Calif.) and analyzed with one-dimensional analysis software (Bio-Rad; FIGS. 4B and C). The value of each band was calculated as a percentage of the control, which was set at 100%.

For a further assay, the system named is Bax. The assay can be described thus: Western blot of phosphorylated Bax in yolk sac cells. In kind it is in vivo, rat. Particulars: embryos of diabetic dams with supplementation, FIG. 4A.
Text: as §2

Take `O=C(O)CCCC[C@@H]1CCSS1` (racemic) [lipoic acid]: in the assay with diabetic pregnancies, the “malformation rate in diabetic pregnancies” value is on record as 10%.

As for `CCCCC/C=C\C/C=C\C/C=C\C/C=C\CCCC(=O)O` [arachidonic acid], the “level of activated JNKs (p-JNK1/2) in embryonic yolk sacs” value in the assay on JNK1/2 is “altered embryo levels of activated ERKs and JNKs”. The “NTDs (%)” value in the assay with embryos of diabetic rats (diabetic rats) was 7.6%; in the assay with embryos of diabetic rats (non-diabetic rats), 4.1%. Further, the “DNA fragmentation (DNA laddering) in yolk sacs” value in the assay with yolk sacs is “DNA fragmentation was eliminated”. Moreover, the “level of activated ERKs (p-ERK1/2) in embryonic yolk sacs” value with ERK1/2 was “altered embryo levels of activated ERKs and JNKs”. Moreover, the “phosphorylated caspase3 level in yolk sacs” value with caspase3 was “reversal of increased caspase3 and Bax levels”. For the same compound, the “phosphorylated Bax level in yolk sacs” value in the assay with Bax is “reversal of increased caspase3 and Bax levels”.

Consider `Cc1c(C)c2c(c(C)c1O)CC[C@@](C)(CCC[C@H](C)CCC[C@H](C)CCCC(C)C)O2` [vitamin E, α-tocopherol], for which the “level of activated JNKs (p-JNK1/2) in embryonic yolk sacs” value in the assay with JNK1/2 was “altered embryo levels of activated ERKs and JNKs”. Also, the figures for the “NTDs (%)” value in the assay on embryos of diabetic rats (diabetic rats) and in the assay with embryos of diabetic rats (non-diabetic rats) were 6.9% and 5.0%, respectively. Further, the “DNA fragmentation (DNA laddering) in yolk sacs” value in the assay with yolk sacs was “DNA fragmentation was eliminated”. In the assay with ERK1/2, the “level of activated ERKs (p-ERK1/2) in embryonic yolk sacs” value is “altered embryo levels of activated ERKs and JNKs”. In addition, the “phosphorylated caspase3 level in yolk sacs” value in the assay on caspase3 was “reversal of increased caspase3 and Bax levels”. Moreover, in the assay with Bax, the “phosphorylated Bax level in yolk sacs” value is “reversal of increased caspase3 and Bax levels”.
